In PMC8708872, “Discovery of a Novel Template, 7-Substituted 7-Deaza-4′-Thioadenosine Derivatives as Multi-Kinase Inhibitors” (Pharmaceuticals, 2021):

Columns and labels:
Experiment in all cases: Kinome scan
Type in all cases: binding
[1] = biological target: T1, ABL1(T315I)-phosphorylated (Homo sapiens, UniProt P00519, T315I); conditions: 1000 nM
T1 construct: purchased Eurofins DiscoverX Corporation
Experimental: (§1) The kinome scan assays were carried out at Eurofins DiscoverX Corporation. For kinome scan profiling of compound 1g, it was screened at 1μM against 96 kinases (N = 2 independent experiments). The results for binding interactions are reported as % inhibition, where higher values indicate strong affinity; see the Supporting Information, Table S1 for full kinome profile.

AKT2 = biological target: T2, AKT2 (Homo sapiens, UniProt P31751); conditions: 1000 nM
T2 construct: purchased Eurofins DiscoverX Corporation
T2 sequence (P31751 whole entry): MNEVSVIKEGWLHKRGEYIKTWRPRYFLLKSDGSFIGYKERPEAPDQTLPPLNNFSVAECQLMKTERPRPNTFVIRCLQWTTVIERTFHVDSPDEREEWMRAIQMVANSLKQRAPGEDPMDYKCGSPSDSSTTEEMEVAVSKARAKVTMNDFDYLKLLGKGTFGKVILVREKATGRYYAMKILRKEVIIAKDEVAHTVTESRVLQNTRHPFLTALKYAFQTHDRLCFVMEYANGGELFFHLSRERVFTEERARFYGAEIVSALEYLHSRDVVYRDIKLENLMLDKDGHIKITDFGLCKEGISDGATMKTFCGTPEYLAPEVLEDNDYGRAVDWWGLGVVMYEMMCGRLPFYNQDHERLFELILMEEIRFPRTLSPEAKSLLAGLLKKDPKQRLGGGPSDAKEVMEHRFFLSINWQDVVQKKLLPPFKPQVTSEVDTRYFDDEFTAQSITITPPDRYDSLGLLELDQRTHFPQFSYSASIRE
Experimental: as §1

AURKA = biological target: T3, AURKA (Homo sapiens, UniProt O14965); conditions: 1000 nM
T3 construct: purchased Eurofins DiscoverX Corporation
Experimental: as §1

AURKB = biological target: T4, AURKB (Homo sapiens, UniProt Q96GD4); conditions: 1000 nM
T4 construct: purchased Eurofins DiscoverX Corporation
Experimental: as §1

BMPR2 = biological target: T5, BMPR2 (Homo sapiens, UniProt Q13873); conditions: 1000 nM
T5 construct: purchased Eurofins DiscoverX Corporation
Experimental: as §1

BRAF(V600E) = biological target: T6, BRAF(V600E) (Homo sapiens, UniProt P15056, V600E); conditions: 1000 nM
T6 construct: purchased Eurofins DiscoverX Corporation
T6 sequence (P15056 whole entry V600E): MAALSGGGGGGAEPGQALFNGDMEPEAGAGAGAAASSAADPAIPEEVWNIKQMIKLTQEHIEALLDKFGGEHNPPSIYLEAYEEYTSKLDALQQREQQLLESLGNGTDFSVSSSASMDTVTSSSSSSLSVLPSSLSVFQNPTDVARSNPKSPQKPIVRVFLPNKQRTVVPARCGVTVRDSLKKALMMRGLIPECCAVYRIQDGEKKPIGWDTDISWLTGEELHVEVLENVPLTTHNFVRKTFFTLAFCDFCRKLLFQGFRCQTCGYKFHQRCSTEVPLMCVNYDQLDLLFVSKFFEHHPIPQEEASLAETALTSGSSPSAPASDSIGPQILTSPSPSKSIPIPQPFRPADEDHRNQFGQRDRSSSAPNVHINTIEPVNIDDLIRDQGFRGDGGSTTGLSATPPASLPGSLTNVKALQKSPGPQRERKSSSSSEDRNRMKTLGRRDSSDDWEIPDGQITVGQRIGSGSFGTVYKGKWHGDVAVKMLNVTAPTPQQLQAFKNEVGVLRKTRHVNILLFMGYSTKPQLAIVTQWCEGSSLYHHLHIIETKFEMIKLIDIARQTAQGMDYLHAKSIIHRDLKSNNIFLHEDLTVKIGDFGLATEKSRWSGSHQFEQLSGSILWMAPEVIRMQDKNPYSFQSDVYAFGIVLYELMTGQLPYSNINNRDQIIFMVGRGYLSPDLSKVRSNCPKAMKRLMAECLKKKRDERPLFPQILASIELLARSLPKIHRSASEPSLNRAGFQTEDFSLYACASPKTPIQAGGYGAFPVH
Experimental: as §1

CDK11 = biological target: T7, CDK11 (Homo sapiens, UniProt Q9BWU1); conditions: 1000 nM
T7 construct: purchased Eurofins DiscoverX Corporation
Experimental: as §1

CDK7 = biological target: T8, CDK7 (Homo sapiens, UniProt P50613); conditions: 1000 nM
T8 construct: purchased Eurofins DiscoverX Corporation
Experimental: as §1

CDK9 = biological target: T9, CDK9 (Homo sapiens, UniProt P50750); conditions: 1000 nM
T9 construct: purchased Eurofins DiscoverX Corporation
Experimental: as §1

CSNK1D = biological target: T10, CSNK1D (Homo sapiens, UniProt P48730)
T10 construct: purchased Eurofins DiscoverX Corporation
T10 sequence (P48730 whole entry): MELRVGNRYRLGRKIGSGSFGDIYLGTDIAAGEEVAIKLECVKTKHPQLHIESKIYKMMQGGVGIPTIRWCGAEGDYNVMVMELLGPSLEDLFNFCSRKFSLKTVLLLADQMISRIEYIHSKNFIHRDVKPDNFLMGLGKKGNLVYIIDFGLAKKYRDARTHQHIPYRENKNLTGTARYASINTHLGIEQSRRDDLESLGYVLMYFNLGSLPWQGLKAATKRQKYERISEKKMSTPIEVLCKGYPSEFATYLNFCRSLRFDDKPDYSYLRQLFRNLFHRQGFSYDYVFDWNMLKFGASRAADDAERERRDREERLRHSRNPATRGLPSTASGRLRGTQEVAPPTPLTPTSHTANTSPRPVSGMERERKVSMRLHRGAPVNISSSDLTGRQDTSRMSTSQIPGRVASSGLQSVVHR
Experimental: as §1

CSNK1G2 = biological target: T11, CSNK1G2 (Homo sapiens, UniProt P78368); conditions: 1000 nM
T11 construct: purchased Eurofins DiscoverX Corporation
T11 sequence (P78368 whole entry): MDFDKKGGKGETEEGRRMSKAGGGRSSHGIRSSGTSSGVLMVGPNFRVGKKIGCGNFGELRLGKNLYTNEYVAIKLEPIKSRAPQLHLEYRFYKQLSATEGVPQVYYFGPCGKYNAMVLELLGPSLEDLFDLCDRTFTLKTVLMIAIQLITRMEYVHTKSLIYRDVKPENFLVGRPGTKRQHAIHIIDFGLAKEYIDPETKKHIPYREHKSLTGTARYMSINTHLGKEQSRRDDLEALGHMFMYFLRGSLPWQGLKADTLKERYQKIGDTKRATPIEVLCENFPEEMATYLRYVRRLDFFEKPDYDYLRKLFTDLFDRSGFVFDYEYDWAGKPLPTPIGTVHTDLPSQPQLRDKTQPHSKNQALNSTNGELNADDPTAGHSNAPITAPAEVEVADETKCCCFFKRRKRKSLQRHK
Experimental: as §1

EGFR(L858R) = biological target: T12, EGFR(L858R) (Homo sapiens, UniProt P00533, L858R); conditions: 1000 nM
T12 construct: purchased Eurofins DiscoverX Corporation
Experimental: as §1

EPHA2 = biological target: T13, EPHA2 (Homo sapiens, UniProt P29317); conditions: 1000 nM
T13 construct: purchased Eurofins DiscoverX Corporation
Experimental: as §1

ERBB2 = biological target: T14, ERBB2 (Homo sapiens, UniProt P04626); conditions: 1000 nM
T14 construct: purchased Eurofins DiscoverX Corporation
Experimental: as §1

ERBB4 = biological target: T15, ERBB4 (Homo sapiens, UniProt Q15303); conditions: 1000 nM
T15 construct: purchased Eurofins DiscoverX Corporation
Experimental: as §1

ERK1 = biological target: T16, ERK1 (Homo sapiens, UniProt P27361); conditions: 1000 nM
T16 construct: purchased Eurofins DiscoverX Corporation
Experimental: as §1

IGF1R = biological target: T17, IGF1R (Homo sapiens, UniProt P08069); conditions: 1000 nM
T17 construct: purchased Eurofins DiscoverX Corporation
Experimental: as §1

IKK-alpha = biological target: T18, IKK-alpha (Homo sapiens, UniProt O15111); conditions: 1000 nM
T18 construct: purchased Eurofins DiscoverX Corporation
Experimental: as §1

IKK-beta = biological target: T19, IKK-beta (Homo sapiens, UniProt O14920); conditions: 1000 nM
T19 construct: purchased Eurofins DiscoverX Corporation
Experimental: as §1

[2] = biological target: T20, JAK2(JH1domain-catalytic) (Homo sapiens, UniProt O60674); conditions: 1000 nM
T20 construct: JAK2(JH1domain-catalytic); purchased Eurofins DiscoverX Corporation
Experimental: as §1

JNK2 = biological target: T21, JNK2 (Homo sapiens, UniProt P45984); conditions: 1000 nM
T21 construct: purchased Eurofins DiscoverX Corporation
Experimental: as §1

JNK3 = biological target: T22, JNK3 (Homo sapiens, UniProt P53779); conditions: 1000 nM
T22 construct: purchased Eurofins DiscoverX Corporation
Experimental: as §1

KIT = biological target: T23, KIT (Homo sapiens, UniProt P10721); conditions: 1000 nM
T23 construct: purchased Eurofins DiscoverX Corporation
Experimental: as §1

MAP3K4 = biological target: T24, MAP3K4 (Homo sapiens, UniProt Q9Y6R4); conditions: 1000 nM
T24 construct: purchased Eurofins DiscoverX Corporation
Experimental: as §1

MET = biological target: T25, MET (Homo sapiens, UniProt P08581); conditions: 1000 nM
T25 construct: purchased Eurofins DiscoverX Corporation
T25 sequence (P08581 25-1390): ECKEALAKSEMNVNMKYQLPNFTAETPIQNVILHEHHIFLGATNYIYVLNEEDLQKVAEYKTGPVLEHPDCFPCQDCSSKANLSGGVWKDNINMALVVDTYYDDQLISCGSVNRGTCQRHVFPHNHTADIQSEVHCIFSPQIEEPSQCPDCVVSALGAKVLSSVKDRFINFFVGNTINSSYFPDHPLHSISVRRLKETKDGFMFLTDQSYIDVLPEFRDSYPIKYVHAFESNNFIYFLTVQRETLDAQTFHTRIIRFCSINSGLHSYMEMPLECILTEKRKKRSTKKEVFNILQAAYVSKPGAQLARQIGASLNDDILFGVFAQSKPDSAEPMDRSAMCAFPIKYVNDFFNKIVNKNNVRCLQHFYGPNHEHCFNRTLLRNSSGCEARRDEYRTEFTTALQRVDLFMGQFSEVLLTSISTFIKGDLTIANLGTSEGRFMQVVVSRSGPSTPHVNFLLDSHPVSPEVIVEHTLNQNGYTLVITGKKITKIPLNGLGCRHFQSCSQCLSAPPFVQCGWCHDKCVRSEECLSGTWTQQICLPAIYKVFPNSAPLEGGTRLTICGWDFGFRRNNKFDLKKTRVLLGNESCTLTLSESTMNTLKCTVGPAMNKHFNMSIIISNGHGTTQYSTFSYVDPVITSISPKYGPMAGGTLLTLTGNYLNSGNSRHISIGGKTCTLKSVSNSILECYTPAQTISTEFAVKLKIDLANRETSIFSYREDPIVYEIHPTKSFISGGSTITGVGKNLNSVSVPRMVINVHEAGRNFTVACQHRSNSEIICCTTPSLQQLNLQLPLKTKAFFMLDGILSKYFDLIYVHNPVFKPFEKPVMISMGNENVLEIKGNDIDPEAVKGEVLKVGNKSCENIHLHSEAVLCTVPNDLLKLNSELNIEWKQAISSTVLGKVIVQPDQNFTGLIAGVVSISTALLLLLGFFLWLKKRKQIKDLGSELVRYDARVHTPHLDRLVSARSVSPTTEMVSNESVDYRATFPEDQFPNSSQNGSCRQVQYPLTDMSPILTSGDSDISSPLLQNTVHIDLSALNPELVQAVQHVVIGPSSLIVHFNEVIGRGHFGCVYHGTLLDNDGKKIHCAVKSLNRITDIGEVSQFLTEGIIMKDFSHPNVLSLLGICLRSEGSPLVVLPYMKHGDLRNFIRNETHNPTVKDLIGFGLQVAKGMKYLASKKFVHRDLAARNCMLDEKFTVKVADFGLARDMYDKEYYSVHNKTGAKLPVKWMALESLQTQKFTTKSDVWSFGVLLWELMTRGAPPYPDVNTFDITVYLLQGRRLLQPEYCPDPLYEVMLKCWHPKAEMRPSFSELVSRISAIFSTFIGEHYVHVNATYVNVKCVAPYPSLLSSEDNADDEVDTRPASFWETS
Experimental: as §1

MKNK1 = biological target: T26, MKNK1 (Homo sapiens, UniProt Q9BUB5); conditions: 1000 nM
T26 construct: purchased Eurofins DiscoverX Corporation
T26 sequence (Q9BUB5 whole entry): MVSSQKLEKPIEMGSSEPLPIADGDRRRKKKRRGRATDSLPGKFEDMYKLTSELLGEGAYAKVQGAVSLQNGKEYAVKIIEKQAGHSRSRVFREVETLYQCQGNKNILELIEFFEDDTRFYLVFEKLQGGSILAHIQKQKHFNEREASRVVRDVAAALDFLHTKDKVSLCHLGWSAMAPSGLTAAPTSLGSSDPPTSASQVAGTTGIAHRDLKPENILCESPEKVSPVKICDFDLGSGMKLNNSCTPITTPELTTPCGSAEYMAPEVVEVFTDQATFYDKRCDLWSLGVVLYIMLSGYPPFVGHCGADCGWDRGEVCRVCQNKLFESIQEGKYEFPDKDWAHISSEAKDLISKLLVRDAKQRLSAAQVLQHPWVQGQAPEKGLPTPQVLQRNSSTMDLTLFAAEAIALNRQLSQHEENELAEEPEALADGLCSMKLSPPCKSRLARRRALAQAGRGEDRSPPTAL
Experimental: as §1

MKNK2 = biological target: T27, MKNK2 (Homo sapiens, UniProt Q9HBH9); conditions: 1000 nM
T27 construct: purchased Eurofins DiscoverX Corporation
Experimental: as §1

PAK2 = biological target: T28, PAK2 (Homo sapiens, UniProt Q13177); conditions: 1000 nM
T28 construct: purchased Eurofins DiscoverX Corporation
Experimental: as §1

PDGFRA = biological target: T29, PDGFRA (Homo sapiens, UniProt P16234); conditions: 1000 nM
T29 construct: purchased Eurofins DiscoverX Corporation
Experimental: as §1

PDGFRB = biological target: T30, PDGFRB (Homo sapiens, UniProt P09619); conditions: 1000 nM
T30 construct: purchased Eurofins DiscoverX Corporation
Experimental: as §1

PIK3CA = biological target: T31, PIK3CA (Homo sapiens, UniProt P42336); conditions: 1000 nM
T31 construct: purchased Eurofins DiscoverX Corporation
T31 sequence (P42336 whole entry): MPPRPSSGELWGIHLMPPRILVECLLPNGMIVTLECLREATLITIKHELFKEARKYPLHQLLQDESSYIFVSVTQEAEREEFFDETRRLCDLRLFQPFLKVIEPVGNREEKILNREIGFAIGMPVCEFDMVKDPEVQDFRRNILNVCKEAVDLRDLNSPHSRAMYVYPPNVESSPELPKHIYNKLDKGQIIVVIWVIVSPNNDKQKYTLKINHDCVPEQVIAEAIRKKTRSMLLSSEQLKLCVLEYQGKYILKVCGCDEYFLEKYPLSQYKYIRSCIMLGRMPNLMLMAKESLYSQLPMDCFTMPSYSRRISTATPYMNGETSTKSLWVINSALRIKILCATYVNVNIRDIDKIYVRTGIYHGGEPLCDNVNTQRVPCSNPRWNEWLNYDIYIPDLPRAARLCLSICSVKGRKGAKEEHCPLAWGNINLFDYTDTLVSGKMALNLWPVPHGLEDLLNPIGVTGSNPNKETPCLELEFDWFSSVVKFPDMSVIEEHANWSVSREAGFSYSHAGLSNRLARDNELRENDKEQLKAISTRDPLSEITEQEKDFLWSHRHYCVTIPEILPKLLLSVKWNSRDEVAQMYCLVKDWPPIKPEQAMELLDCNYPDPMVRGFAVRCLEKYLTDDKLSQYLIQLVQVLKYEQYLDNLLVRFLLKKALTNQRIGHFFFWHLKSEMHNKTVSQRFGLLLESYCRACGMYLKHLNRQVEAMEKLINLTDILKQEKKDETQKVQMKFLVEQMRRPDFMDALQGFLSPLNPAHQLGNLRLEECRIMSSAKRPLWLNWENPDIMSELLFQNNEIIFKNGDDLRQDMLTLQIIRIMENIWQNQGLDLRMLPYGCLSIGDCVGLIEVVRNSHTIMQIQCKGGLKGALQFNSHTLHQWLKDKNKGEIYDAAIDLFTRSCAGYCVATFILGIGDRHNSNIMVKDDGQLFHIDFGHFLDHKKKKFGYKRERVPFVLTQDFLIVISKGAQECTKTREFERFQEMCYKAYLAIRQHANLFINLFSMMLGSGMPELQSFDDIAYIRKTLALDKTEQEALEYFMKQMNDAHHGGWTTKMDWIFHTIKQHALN
Experimental: as §1

PIM3 = biological target: T32, PIM3 (Homo sapiens, UniProt Q86V86); conditions: 1000 nM
T32 construct: purchased Eurofins DiscoverX Corporation
Experimental: as §1

PKAC-alpha = biological target: T33, PKAC-alpha (Homo sapiens, UniProt P17612); conditions: 1000 nM
T33 construct: purchased Eurofins DiscoverX Corporation
Experimental: as §1

PRKCE = biological target: T34, PRKCE (Homo sapiens, UniProt Q02156); conditions: 1000 nM
T34 construct: purchased Eurofins DiscoverX Corporation
Experimental: as §1

RET = biological target: T35, RET (Homo sapiens, UniProt P07949); conditions: 1000 nM
T35 construct: purchased Eurofins DiscoverX Corporation
Experimental: as §1

RIOK2 = biological target: T36, RIOK2 (Homo sapiens, UniProt Q9BVS4); conditions: 1000 nM
T36 construct: purchased Eurofins DiscoverX Corporation
Experimental: as §1

SRC = biological target: T37, SRC (Homo sapiens, UniProt P12931); conditions: 1000 nM
T37 construct: purchased Eurofins DiscoverX Corporation
Experimental: as §1

TGFBR1 = biological target: T38, TGFBR1 (Homo sapiens, UniProt P36897); conditions: 1000 nM
T38 construct: purchased Eurofins DiscoverX Corporation
Experimental: as §1

TSSK1B = biological target: T39, TSSK1B (Homo sapiens, UniProt Q9BXA7); conditions: 1000 nM
T39 construct: purchased Eurofins DiscoverX Corporation
Experimental: as §1

ULK2 = biological target: T40, ULK2 (Homo sapiens, UniProt Q8IYT8); conditions: 1000 nM
T40 construct: purchased Eurofins DiscoverX Corporation
Experimental: as §1

p38-alpha = biological target: T41, p38-alpha (Homo sapiens, UniProt Q16539); conditions: 1000 nM
T41 construct: purchased Eurofins DiscoverX Corporation
Experimental: as §1

p38-beta = biological target: T42, p38-beta (Homo sapiens, UniProt Q15759); conditions: 1000 nM
T42 construct: purchased Eurofins DiscoverX Corporation
Experimental: as §1

C#Cc1cn([C@@H]2S[C@H](CO)[C@@H](O)[C@H]2O)c2ncnc(N)c12 [Compound 1g, (2R,3R,4S,5R)-2-(4-Amino-5-ethynyl-7H-pyrrolo[2,3-d]pyrimidin-7-yl)-5-(hydroxymethyl)tetrahydrothiophene-3,4-diol]
inhibition at 1 µM [1]: 65% | inhibition at 1 µM (AKT2): 4% | inhibition at 1 µM (AURKA): 22% | inhibition at 1 µM (AURKB): 0% | inhibition at 1 µM (BMPR2): 1% | inhibition at 1 µM (BRAF(V600E)): 0% | inhibition at 1 µM (CDK11): 72.1% | inhibition at 1 µM (CDK7): 52.3% | inhibition at 1 µM (CDK9): 4% | remaining binding at 1 µM (CSNK1D; 1 μM, read-out: activity remaining, CK1δ (CSNK1D)): < 20% | inhibition at 1 µM (CSNK1D; 1000 nM, CSNK1D): 91.3% | inhibition at 1 µM (CSNK1G2): 54% | inhibition at 1 µM (EGFR(L858R)): 0% | inhibition at 1 µM (EPHA2): 28% | inhibition at 1 µM (ERBB2): 15% | inhibition at 1 µM (ERBB4): 3% | inhibition at 1 µM (ERK1): 4% | inhibition at 1 µM (IGF1R): 7% | inhibition at 1 µM (IKK-alpha): 10% | inhibition at 1 µM (IKK-beta): 0% | inhibition at 1 µM [2]: 35% | inhibition at 1 µM (JNK2): 0% | inhibition at 1 µM (JNK3): 13% | inhibition at 1 µM (KIT): 1% | inhibition at 1 µM (MAP3K4): 29% | inhibition at 1 µM (MET): 4% | inhibition at 1 µM (MKNK1): 0% | inhibition at 1 µM (MKNK2): 62% | inhibition at 1 µM (PAK2): 44% | inhibition at 1 µM (PDGFRA): 0% | inhibition at 1 µM (PDGFRB): 8% | inhibition at 1 µM (PIK3CA): 7% | inhibition at 1 µM (PIM3): 25% | inhibition at 1 µM (PKAC-alpha): 11% | inhibition at 1 µM (PRKCE): 0% | inhibition at 1 µM (RET): 11% | inhibition at 1 µM (RIOK2): 0% | inhibition at 1 µM (SRC): 6% | inhibition at 1 µM (TGFBR1): 11% | inhibition at 1 µM (TSSK1B): 16% | inhibition at 1 µM (ULK2): 0% | inhibition at 1 µM (p38-alpha): 11% | inhibition at 1 µM (p38-beta): 3%
